These results are taken from patent US10519177B2, “Heterocyclic compounds and uses thereof” (Plexxikon Inc., priority 2013, dated 2019).

The structures appear in SMILES notation.

For one experiment, the system named is MV-4-11 cells. The experiment can be described thus: Oncology cell growth assay MV-4-11 (CellTiter Glo). It is filed as cell-based. The note with it: Homo sapiens, MV4-11, 72 h; read-out: Cell activity (IC50 μM) MV-4-11 3d-Growth. A digest of the protocol:
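Growth read by CellTiter Glo luminescence after 72 h compound treatment of MLL-AF4-bearing MV-4-11 cells (3000/well). Titration: 8 points, 1:3 steps, maximum 10 μM, 0.2% DMSO final. Data normalized to DMSO wells, four-parameter fit gives pIC50.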
A general note: In ATP-based viability assays light output follows the ATP content of the culture.

Another experiment has as its system bromodomain. The experiment can be described thus: at least one of the bromodomain cell assays of Example 57. It is filed as cell-based. The note with it: at least one of the bromodomain cell assays described in Example 57; read-out: IC50 in at least one of the bromodomain cell assays.
For the next experiment, the target named is BRD4-BD1 (44-164) (Homo sapiens (Human), UniProt O60885). The experiment can be described thus: Alphascreen binding assay BRD4-BD1. The note with it: BRD4(1) H4; read-out: Biochemical activity (IC50 μM) BRD4(1) H4. A digest of the protocol:
(§1)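 In this competition format, compounds displace a biotinylated tetra-acetyl H4 peptide from E. coli-expressed human BRD4 bromodomain constructs captured on nickel chelate beads. The reaction runs at pH 7.5 with 2 mM DTT and detergent for 1 h at room temperature before a 30 min bead step.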

The next experiment has as its target BRD4-BD12 (1-477) (Homo sapiens (Human), UniProt O60885). Kind of experiment: Alphascreen binding assay BRD4-BD12. The note with it: BRD4(1 2) H4; read-out: Biochemical activity (IC50 μM) BRD4(1 2) H4. In a few lines:
as §1
For orientation: Alpha assays give light when donor and acceptor beads are brought close together.

Turning to `Cc1ccc(-c2cnc3ccn(CC4CCC(F)(F)CC4)c3c2)cn1` [P-0313, 1-[(4,4-difluorocyclohexyl)methyl]-6-(6-methyl-3-pyridyl)pyrrolo[3,2-b]pyridine], the 50% inhibitory concentration (IC50) (in general, the midpoint of a concentration-inhibition curve) with MV-4-11 cells was 10 to 200 µM; in the experiment on bromodomain, below 10 µM; on BRD4-BD1 (44-164) it was 10 to 200 µM; at BRD4-BD12 (1-477) it was below 1 µM.

With `Cc1noc(C)c1-c1cnc2c(-c3cnn(C(F)F)c3)cn(C(CC#N)C3CCOCC3)c2c1` (stereo not shown) [P-0314, 3-[3-[1-(difluoromethyl)pyrazol-4-yl]-6-(3,5-dimethylisoxazol-4-yl)pyrrolo[3,2-b]pyridin-1-yl]-3-tetrahydropyran-4-yl-propanenitrile], the concentration for half-maximal inhibition (IC50) with MV-4-11 cells is below 1 µM; in the experiment with bromodomain it was below 10 µM; on BRD4-BD1 (44-164), below 1 µM; at BRD4-BD12 (1-477), below 1 µM.

As for `Cc1noc(C)c1-c1cnc2c(-c3cnn(CC(F)(F)F)c3)cn(C(CC#N)C3CC3)c2c1` (stereo not shown) [P-0315, 3-cyclopropyl-3-[6-(3,5-dimethylisoxazol-4-yl)-3-[1-(2,2,2-trifluoroethyl)pyrazol-4-yl]pyrrolo[3,2-b]pyridin-1-yl]propanenitrile], the IC50 in the experiment with MV-4-11 cells is below 1 µM; with bromodomain, below 10 µM; at BRD4-BD1 (44-164), below 1 µM; on BRD4-BD12 (1-477) it was below 1 µM.

Turning to `Cc1noc(C)c1-c1cnc2c(-c3cnn(C)c3)cn(C(CC#N)C3CC3)c2c1` (stereo not shown) [P-0316, 3-cyclopropyl-3-[6-(3,5-dimethylisoxazol-4-yl)-3-(1-methylpyrazol-4-yl)pyrrolo[3,2-b]pyridin-1-yl]propanenitrile], the half-maximal inhibitory concentration (IC50) is below 1 µM in the experiment with MV-4-11 cells, below 10 µM in the experiment with bromodomain, below 1 µM on BRD4-BD1 (44-164) and below 1 µM on BRD4-BD12 (1-477).

Take `Cc1noc(C)c1-c1cnc2c(-c3cnn(CC(F)(F)F)c3)cn(Cc3ccccc3)c2c1` [P-0317, 4-[1-benzyl-3-[1-(2,2,2-trifluoroethyl)pyrazol-4-yl]pyrrolo[3,2-b]pyridin-6-yl]-3,5-dimethyl-isoxazole]: the half-inhibitory concentration (IC50) with MV-4-11 cells is below 1 µM; in the experiment on bromodomain it was below 10 µM; on BRD4-BD1 (44-164), below 1 µM; on BRD4-BD12 (1-477), below 1 µM.

Regarding `Cc1noc(C)c1-c1cnc2c(I)cn(Cc3ccccc3)c2c1` [P-0318, 4-(1-benzyl-3-iodo-pyrrolo[3,2-b]pyridin-6-yl)-3,5-dimethyl-isoxazole], the half-inhibitory concentration (IC50) was below 1 µM in the experiment with MV-4-11 cells, below 10 µM in the experiment on bromodomain, below 1 µM on BRD4-BD1 (44-164) and below 1 µM on BRD4-BD12 (1-477).

Turning to `Cc1noc(C)c1-c1cnc2c(I)cn(Cc3ncccn3)c2c1` [P-0319, 4-[3-iodo-1-(pyrimidin-2-ylmethyl)pyrrolo[3,2-b]pyridin-6-yl]-3,5-dimethyl-isoxazole], the 50% inhibitory concentration (IC50) with MV-4-11 cells was below 1 µM; in the experiment on bromodomain, below 10 µM; on BRD4-BD1 (44-164), below 1 µM; on BRD4-BD12 (1-477) it was below 1 µM.

For the compound `Cc1noc(C)c1-c1cnc2c(-c3cnn(CC(F)(F)F)c3)cn(C(C)c3ccccn3)c2c1` (stereo not shown) [P-0320, 3,5-dimethyl-4-[1-[1-(2-pyridyl)ethyl]-3-[1-(2,2,2-trifluoroethyl)pyrazol-4-yl]pyrrolo[3,2-b]pyridin-6-yl]isoxazole], the concentration for half-maximal inhibition (IC50) is below 1 µM in the experiment on MV-4-11 cells, below 10 µM in the experiment on bromodomain, below 1 µM on BRD4-BD1 (44-164) and below 1 µM on BRD4-BD12 (1-477).

As to `Cc1noc(C)c1-c1cnc2c(-c3cnn(CC(F)(F)F)c3)cn(CC3(F)CCC(F)(F)CC3)c2c1` [P-0321, 3,5-dimethyl-4-(1-[(1,4,4-trifluorocyclohexyl)methyl]-3-[1-(2,2,2-trifluoroethyl)pyrazol-4-yl]pyrrolo[3,2-b]pyridin-6-yl]isoxazole], the IC50 was below 1 µM in the experiment on MV-4-11 cells, below 10 µM in the experiment with bromodomain, below 1 µM on BRD4-BD1 (44-164) and 1 to 10 µM on BRD4-BD12 (1-477).

For the compound `Cc1nnc(CCl)n1-c1cnc2[nH]ccc2c1` [P-0322, 5-[3-(chloromethyl)-5-methyl-1,2,4-triazol-4-yl]-1H-pyrrolo[2,3-b]pyridine], the IC50 in the experiment on MV-4-11 cells was 1 to 10 µM; in the experiment with bromodomain, below 10 µM; on BRD4-BD1 (44-164), 10 to 200 µM; at BRD4-BD12 (1-477) it was 10 to 200 µM.

Turning to `Cc1onc(NC(=O)OC(C)(C)C)c1-c1cnc2ccn(CC3CCC(F)(F)CC3)c2c1` [P-0323, tert-butyl N-[4-[1-[(4,4-difluorocyclohexyl)methyl]pyrrolo[3,2-b]pyridin-6-yl]-5-methyl-isoxazol-3-yl]carbamate], the IC50 with MV-4-11 cells is 10 to 200 µM; in the experiment on bromodomain, below 10 µM; on BRD4-BD1 (44-164) it was 10 to 200 µM; on BRD4-BD12 (1-477), below 1 µM.

Consider `Cc1noc(C)c1-c1cnc2c(-c3ccc(C(=O)O)cc3)cn(CC3CCC(F)(F)CC3)c2c1` [P-0324, 4-[1-[(4,4-difluorocyclohexyl)methyl]-6-(3,5-dimethylisoxazol-4-yl)pyrrolo[3,2-b]pyridin-3-yl]benzoic acid], for which the concentration for half-maximal inhibition (IC50) in the experiment on MV-4-11 cells is below 1 µM; in the experiment with bromodomain, below 10 µM; on BRD4-BD1 (44-164) it was below 1 µM; on BRD4-BD12 (1-477) it was below 1 µM.

Turning to `Cc1noc(C)c1-c1cnc2c(-c3cnn(C)c3)cn(Cc3ncccn3)c2c1` [P-0325, 3,5-dimethyl-4-[3-(1-methylpyrazol-4-yl)-1-(pyrimidin-2-ylmethyl)pyrrolo[3,2-b]pyridin-6-yl]isoxazole], the concentration for half-maximal inhibition (IC50) in the experiment on MV-4-11 cells is below 1 µM; in the experiment with bromodomain, below 10 µM; at BRD4-BD1 (44-164), below 1 µM; at BRD4-BD12 (1-477), below 1 µM.

As for `Cc1noc(C)c1-c1cnc2c(-c3cnn(C(F)F)c3)cn(Cc3ccccc3)c2c1` [P-0326, 4-[1-benzyl-3-[1-(difluoromethyl)pyrazol-4-yl]pyrrolo[3,2-b]pyridin-6-yl]-3,5-dimethyl-isoxazole], the half-maximal inhibitory concentration (IC50) was below 1 µM in the experiment on MV-4-11 cells, below 10 µM in the experiment with bromodomain, below 1 µM on BRD4-BD1 (44-164) and below 1 µM at BRD4-BD12 (1-477).

With `Cc1noc(C)c1-c1cnc2c(-c3cnn(C)c3)cn(Cc3ccccc3)c2c1` [P-0327, 4-[1-benzyl-3-(1-methylpyrazol-4-yl)pyrrolo[3,2-b]pyridin-6-yl]-3,5-dimethyl-isoxazole], the IC50 is below 1 µM in the experiment on MV-4-11 cells, below 10 µM in the experiment with bromodomain, below 1 µM at BRD4-BD1 (44-164) and below 1 µM on BRD4-BD12 (1-477).

In the case of `Cc1noc(N)c1-c1cnc2ccn(CC3CCC(F)(F)CC3)c2c1` [P-0328, 4-[1-[(4,4-difluorocyclohexyl)methyl]pyrrolo[3,2-b]pyridin-6-yl]-3-methyl-isoxazol-5-amine], the IC50 in the experiment with MV-4-11 cells was 1 to 10 µM; in the experiment on bromodomain, below 10 µM; on BRD4-BD1 (44-164), below 1 µM; on BRD4-BD12 (1-477), below 1 µM.

With `Cc1onc(N)c1-c1cnc2ccn(CC3CCC(F)(F)CC3)c2c1` [P-0329, 4-[1-[(4,4-difluorocyclohexyl)methyl]pyrrolo[3,2-b]pyridin-6-yl]-5-methyl-isoxazol-3-amine], the half-inhibitory concentration (IC50) with MV-4-11 cells was 1 to 10 µM; with bromodomain, below 10 µM; on BRD4-BD1 (44-164), below 1 µM; on BRD4-BD12 (1-477), below 1 µM.

With `COC(=O)c1ccc(-c2cn(CC3CCC(F)(F)CC3)c3cc(-c4c(C)noc4C)cnc23)cc1` [P-0330, methyl 4-[1-[(4,4-difluorocyclohexyl)methyl]-6-(3,5-dimethylisoxazol-4-yl)pyrrolo[3,2-b]pyridin-3-yl]benzoate], the IC50 in the experiment with MV-4-11 cells was below 1 µM; with bromodomain, below 10 µM; at BRD4-BD1 (44-164), below 1 µM; at BRD4-BD12 (1-477), below 1 µM.

For the compound `Cc1noc(C)c1-c1cnc2c(-c3cnn(C)c3)cn(C(CC#N)c3ccccc3)c2c1` (stereo not shown) [P-0331, 3-[6-(3,5-dimethylisoxazol-4-yl)-3-(1-methylpyrazol-4-yl)pyrrolo[3,2-b]pyridin-1-yl]-3-phenyl-propanenitrile], the 50% inhibitory concentration (IC50) with MV-4-11 cells was below 1 µM; with bromodomain it was below 10 µM; at BRD4-BD1 (44-164) it was below 1 µM; at BRD4-BD12 (1-477), below 1 µM.

Consider `Cc1noc(C)c1-c1cnc2c(-c3cnn(CC(F)(F)F)c3)cn(C(CC#N)c3ccccc3)c2c1` (stereo not shown) [P-0332, 3-[6-(3,5-dimethylisoxazol-4-yl)-3-[1-(2,2,2-trifluoroethyl)pyrazol-4-yl]pyrrolo[3,2-b]pyridin-1-yl]-3-phenyl-propanenitrile], for which the half-maximal inhibitory concentration (IC50) in the experiment with MV-4-11 cells is below 1 µM; with bromodomain it was below 10 µM; at BRD4-BD1 (44-164), below 1 µM; on BRD4-BD12 (1-477), below 1 µM.

Consider `Cc1noc(C)c1-c1cnc2c(I)cn(Cc3ccccn3)c2c1` [P-0333, 4-[3-iodo-1-(2-pyridylmethyl)pyrrolo[3,2-b]pyridin-6-yl]-3,5-dimethyl-isoxazole], for which the IC50 in the experiment on MV-4-11 cells is below 1 µM; with bromodomain it was below 10 µM; at BRD4-BD1 (44-164), below 1 µM; on BRD4-BD12 (1-477), below 1 µM.

As for `[2H]C([2H])(C1CCC(F)(F)CC1)n1cc(C#CCO)c2ncc(-c3c(C)noc3C)cc21` [P-0370, 3-[1-[dideuterio-(4,4-difluorocyclohexyl)methyl]-6-(3,5-dimethylisoxazol-4-yl)pyrrolo[3,2-b]pyridin-3-yl]prop-2-yn-1-ol], the IC50 was below 1 µM with MV-4-11 cells, below 10 µM with bromodomain, below 1 µM on BRD4-BD1 (44-164) and below 1 µM at BRD4-BD12 (1-477).
